Measured values reported in PubChem BioAssay (NCI).
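Values below derive from 48-hour exposures of cells grown in 96-well plates, with endpoints linearly interpolated between the two concentrations bracketing the appropriate inhibition level. At the GI50, growth is halved. Definition used: TGI = concentration required for complete inhibition of growth.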

Legend:
Assay in all cases: growth of human tumour cells (NCI), 48 h
CCRF-CEM leukemia = test system: CCRF-CEM leukemia
T-47D breast = test system: T-47D breast
KM12 colon = test system: KM12 colon
A549 NSCLC = test system: A549 NSCLC
IGROV1 ovarian = test system: IGROV1 ovarian
SK-OV-3 ovarian = test system: SK-OV-3 ovarian
NCI-H460 lung = test system: NCI-H460 lung
HCC-2998 colon = test system: HCC-2998 colon
UACC-257 melanoma = test system: UACC-257 melanoma
LOX IMVI melanoma = test system: LOX IMVI melanoma
OVCAR-4 ovarian = test system: OVCAR-4 ovarian
SF-268 CNS = test system: SF-268 CNS
HOP-92 NSCLC = test system: HOP-92 NSCLC
UACC-62 melanoma = test system: UACC-62 melanoma
HCT-116 colon = test system: HCT-116 colon
SNB-19 CNS = test system: SNB-19 CNS
SF-539 CNS = test system: SF-539 CNS
MALME-3M melanoma = test system: MALME-3M melanoma
SF-295 CNS = test system: SF-295 CNS
NCI-H522 lung = test system: NCI-H522 lung
U251 CNS = test system: U251 CNS
NCI-H226 lung = test system: NCI-H226 lung
SNB-75 CNS = test system: SNB-75 CNS
BT-549 breast = test system: BT-549 breast
DU-145 prostate = test system: DU-145 prostate
SK-MEL-28 melanoma = test system: SK-MEL-28 melanoma
M14 melanoma = test system: M14 melanoma
HS 578T breast = test system: HS 578T breast
HOP-62 NSCLC = test system: HOP-62 NSCLC
786-0 renal = test system: 786-0 renal
UO-31 renal = test system: UO-31 renal
OVCAR-5 ovarian = test system: OVCAR-5 ovarian
MDA-MB-435 = test system: MDA-MB-435
A498 renal = test system: A498 renal
COLO 205 colon = test system: COLO 205 colon
EKVX NSCLC = test system: EKVX NSCLC
NCI/ADR-RES ovarian = test system: NCI/ADR-RES ovarian
SK-MEL-5 melanoma = test system: SK-MEL-5 melanoma
RXF 393 renal = test system: RXF 393 renal
OVCAR-8 ovarian = test system: OVCAR-8 ovarian
SK-MEL-2 melanoma = test system: SK-MEL-2 melanoma
TK-10 renal = test system: TK-10 renal
HT29 colon = test system: HT29 colon
ACHN renal = test system: ACHN renal
HCT-15 colon = test system: HCT-15 colon
RPMI-8226 leukemia = test system: RPMI-8226 leukemia
OVCAR-3 ovarian = test system: OVCAR-3 ovarian
SW-620 colon = test system: SW-620 colon
CAKI-1 renal = test system: CAKI-1 renal
PC-3 prostate = test system: PC-3 prostate
MDA-MB-231 breast = test system: MDA-MB-231 breast
SN12C renal = test system: SN12C renal
MCF7 breast = test system: MCF7 breast

How did the GI50 (CCRF-CEM leukemia) turn out when N#Cc1nc(-c2ccccc2)oc1S(=O)(=O)N1CCCCC1 was run?
The GI50 was 2.36 µM.

What about the TGI (CCRF-CEM leukemia) of the same compound?
Its TGI is over 100 µM.

And the GI50 (T-47D breast)?
The GI50 was 16.2 µM.

And the TGI (T-47D breast)?
Its TGI is 36.8 µM.

What about the GI50 (KM12 colon) of the same compound?
The GI50 was 29.1 µM.

What about the TGI (KM12 colon) of the same compound?
The TGI was over 100 µM.

And the GI50 (A549 NSCLC)?
The GI50 was 71.7 µM.

What about the TGI (A549 NSCLC) of the same compound?
The TGI was over 100 µM.

What about the GI50 (IGROV1 ovarian) of the same compound?
The GI50 was 28.7 µM.

What about the TGI (IGROV1 ovarian) of the same compound?
Its TGI is over 100 µM.

And the GI50 (SK-OV-3 ovarian)?
The GI50 was over 100 µM.

What about the TGI (SK-OV-3 ovarian) of the same compound?
The TGI was over 100 µM.

And the GI50 (NCI-H460 lung)?
Its GI50 is 26.6 µM.

What about the TGI (NCI-H460 lung) of the same compound?
The TGI was over 100 µM.

What about the GI50 (HCC-2998 colon) of the same compound?
Its GI50 is 17.1 µM.

What about the TGI (HCC-2998 colon) of the same compound?
Its TGI is 32.8 µM.

And the GI50 (UACC-257 melanoma)?
The GI50 was 17.8 µM.

What about the TGI (UACC-257 melanoma) of the same compound?
Its TGI is 50.4 µM.

What about the GI50 (LOX IMVI melanoma) of the same compound?
Its GI50 is 1.51 µM.

And the TGI (LOX IMVI melanoma)?
The TGI was 5.24 µM.

What about the GI50 (OVCAR-4 ovarian) of the same compound?
The GI50 was 14.2 µM.

And the TGI (OVCAR-4 ovarian)?
The TGI was 32.3 µM.

What about the GI50 (SF-268 CNS) of the same compound?
Its GI50 is 26.6 µM.

And the TGI (SF-268 CNS)?
Its TGI is over 100 µM.

And the GI50 (HOP-92 NSCLC)?
The GI50 was 6.29 µM.

What about the TGI (HOP-92 NSCLC) of the same compound?
The TGI was 19.6 µM.

What about the GI50 (UACC-62 melanoma) of the same compound?
Its GI50 is 19.5 µM.

And the TGI (UACC-62 melanoma)?
Its TGI is 49.6 µM.

What about the GI50 (HCT-116 colon) of the same compound?
The GI50 was 4.95 µM.

What about the TGI (HCT-116 colon) of the same compound?
Its TGI is 23.6 µM.

What about the GI50 (SNB-19 CNS) of the same compound?
Its GI50 is 72.3 µM.

What about the TGI (SNB-19 CNS) of the same compound?
Its TGI is over 100 µM.

What about the GI50 (SF-539 CNS) of the same compound?
Its GI50 is 17.5 µM.

And the TGI (SF-539 CNS)?
The TGI was 34.3 µM.

And the GI50 (MALME-3M melanoma)?
The GI50 was 10.8 µM.

And the TGI (MALME-3M melanoma)?
The TGI was 32 µM.

What about the GI50 (SF-295 CNS) of the same compound?
Its GI50 is over 100 µM.

And the TGI (SF-295 CNS)?
Its TGI is over 100 µM.

What about the GI50 (NCI-H522 lung) of the same compound?
The GI50 was 2.08 µM.

And the TGI (NCI-H522 lung)?
Its TGI is 7.94 µM.

What about the GI50 (U251 CNS) of the same compound?
Its GI50 is 17.5 µM.

What about the TGI (U251 CNS) of the same compound?
Its TGI is 36.8 µM.

What about the GI50 (NCI-H226 lung) of the same compound?
Its GI50 is 10.3 µM.

And the TGI (NCI-H226 lung)?
Its TGI is 26.5 µM.

What about the GI50 (SNB-75 CNS) of the same compound?
Its GI50 is 18.3 µM.

What about the TGI (SNB-75 CNS) of the same compound?
Its TGI is 43.8 µM.

And the GI50 (BT-549 breast)?
The GI50 was 13.7 µM.

And the TGI (BT-549 breast)?
The TGI was 48.8 µM.

And the GI50 (DU-145 prostate)?
Its GI50 is 15.3 µM.

And the TGI (DU-145 prostate)?
The TGI was 28.6 µM.

What about the GI50 (SK-MEL-28 melanoma) of the same compound?
Its GI50 is 17.5 µM.

And the TGI (SK-MEL-28 melanoma)?
Its TGI is 33.8 µM.

What about the GI50 (M14 melanoma) of the same compound?
Its GI50 is 11.2 µM.

And the TGI (M14 melanoma)?
The TGI was 61 µM.

What about the GI50 (HS 578T breast) of the same compound?
The GI50 was 23.1 µM.

And the TGI (HS 578T breast)?
The TGI was 87.2 µM.

And the GI50 (HOP-62 NSCLC)?
Its GI50 is over 100 µM.

What about the TGI (HOP-62 NSCLC) of the same compound?
The TGI was over 100 µM.

What about the GI50 (786-0 renal) of the same compound?
The GI50 was 18.7 µM.

And the TGI (786-0 renal)?
The TGI was 52.4 µM.

What about the GI50 (UO-31 renal) of the same compound?
The GI50 was 15.1 µM.

What about the TGI (UO-31 renal) of the same compound?
Its TGI is 28.3 µM.

What about the GI50 (OVCAR-5 ovarian) of the same compound?
The GI50 was 21.9 µM.

And the TGI (OVCAR-5 ovarian)?
Its TGI is 52.8 µM.

And the GI50 (MDA-MB-435)?
The GI50 was 14.6 µM.

And the TGI (MDA-MB-435)?
Its TGI is 31.2 µM.

And the GI50 (A498 renal)?
Its GI50 is over 100 µM.

What about the TGI (A498 renal) of the same compound?
Its TGI is over 100 µM.

What about the GI50 (COLO 205 colon) of the same compound?
The GI50 was 2.67 µM.

And the TGI (COLO 205 colon)?
The TGI was 7.1 µM.

And the GI50 (EKVX NSCLC)?
Its GI50 is over 100 µM.

And the TGI (EKVX NSCLC)?
Its TGI is over 100 µM.

And the GI50 (NCI/ADR-RES ovarian)?
Its GI50 is 30.8 µM.

What about the TGI (NCI/ADR-RES ovarian) of the same compound?
The TGI was over 100 µM.

And the GI50 (SK-MEL-5 melanoma)?
Its GI50 is 30.9 µM.

And the TGI (SK-MEL-5 melanoma)?
Its TGI is over 100 µM.

What about the GI50 (RXF 393 renal) of the same compound?
The GI50 was 9.52 µM.

And the TGI (RXF 393 renal)?
Its TGI is 22.7 µM.

And the GI50 (OVCAR-8 ovarian)?
The GI50 was 22.1 µM.

What about the TGI (OVCAR-8 ovarian) of the same compound?
Its TGI is 56.5 µM.

What about the GI50 (SK-MEL-2 melanoma) of the same compound?
The GI50 was 15.3 µM.

What about the TGI (SK-MEL-2 melanoma) of the same compound?
The TGI was 45.1 µM.

And the GI50 (TK-10 renal)?
The GI50 was 22.1 µM.

And the TGI (TK-10 renal)?
The TGI was 63.2 µM.

What about the GI50 (HT29 colon) of the same compound?
Its GI50 is 12.4 µM.

What about the TGI (HT29 colon) of the same compound?
The TGI was 28.4 µM.

And the GI50 (ACHN renal)?
The GI50 was 4.98 µM.

What about the TGI (ACHN renal) of the same compound?
Its TGI is 16.5 µM.

And the GI50 (HCT-15 colon)?
The GI50 was 5.32 µM.

And the TGI (HCT-15 colon)?
The TGI was 25.8 µM.

And the GI50 (RPMI-8226 leukemia)?
Its GI50 is 17.5 µM.

What about the TGI (RPMI-8226 leukemia) of the same compound?
Its TGI is 49.5 µM.

And the GI50 (OVCAR-3 ovarian)?
The GI50 was 10.5 µM.

And the TGI (OVCAR-3 ovarian)?
The TGI was 24.4 µM.

What about the GI50 (SW-620 colon) of the same compound?
The GI50 was 4.17 µM.

And the TGI (SW-620 colon)?
The TGI was 18.1 µM.

What about the GI50 (CAKI-1 renal) of the same compound?
The GI50 was 7.37 µM.

What about the TGI (CAKI-1 renal) of the same compound?
Its TGI is 20.3 µM.

What about the GI50 (PC-3 prostate) of the same compound?
Its GI50 is 19.4 µM.

And the TGI (PC-3 prostate)?
The TGI was 53.6 µM.

And the GI50 (MDA-MB-231 breast)?
Its GI50 is 25.4 µM.

And the TGI (MDA-MB-231 breast)?
Its TGI is 80.7 µM.

What about the GI50 (SN12C renal) of the same compound?
The GI50 was 14.9 µM.

And the TGI (SN12C renal)?
Its TGI is 47.5 µM.

What about the GI50 (MCF7 breast) of the same compound?
Its GI50 is 9.02 µM.

What about the TGI (MCF7 breast) of the same compound?
Its TGI is 26.9 µM.
